Data published in patent US11414378B2, “Anti-fungals compounds targeting the synthesis of fungal sphingolipids” (THE RESEARCH FOUNDATION FOR THE STATE UNIVERSITY OF NEW YORK, priority 2017, dated 2022).
Converted amounts (≈) assume the structure as drawn.

Legend:
C. neoformans cells = assay: In vitro killing activity (K100) assay; assay type: cell-based, Cryptococcus neoformans; conditions: minimum concentration that kills 100% of C. neoformans cells in 48 h; for MFC: Cryptococcus neoformans
Protocol: C. neoformans cells from a culture grown overnight were washed in PBS and resuspended in YNB buffered with HEPES at pH 7.4. The cells were counted, and 2×10^4 cells were incubated with different concentration of compounds in a final volume of 10 ml with a final concentration of 0.5% DMSO. The tubes were then incubated at 37° C. with 5% CO2 on a rotary shaker at 200 rpm. Aliquots were taken at time points and diluted, and […] were plated onto Yeast Extract-Peptone-Dextrose (YPD) plates. YPD plates were incubated in a 30° C. incubator and after 48 h, the numbers of CFU were counted and recorded.

C. neoformans = assay: In vitro susceptibility (MIC80) assay; assay type: cell-based; conditions: Cryptococcus neoformans; lowest concentration that inhibited 80% of growth; YNB pH 7.0, HEPES, 37° C., 5% CO2
Protocol: MICs was determined following the methods of the Clinical and Laboratory Standards Institutes (CLSI) with modifications. Yeast Nitrogen Base (YNB) medium (pH 7.0, 0.2% glucose) buffered with HEPES was used for MIC studies. […] The compound was serially diluted from 16 to 0.03 μg/ml, in a 96-well plate. The inoculum was prepared as described in the CLSI protocol M27A3 guidelines. The plates were incubated at 37° C. with 5% CO2 for 24 to 72 h and the optical density was measure at 450 nm. The MICs was determined as the lowest concentration of the compound that inhibited 80% of growth compared to the control.

SMILES | MIC80 (C. neoformans) | MFC (C. neoformans cells) | K100* (μg/mL) (C. neoformans cells)
O=C(N/N=C/c1cc(OC(F)(F)F)ccc1O)c1ccc(Br)cc1Br [Compound A3, 2,4-Dibromo-N′-(2-hydroxy-5-trifluoromethoxybenzylidene)benzohydrazide] | 0.25 µg/mL (≈ 0.519 µM) | 2 µg/mL (≈ 4.15 µM) | 
O=C(N/N=C/c1cc(F)ccc1O)c1ccc(Br)cc1Br [Compound A4, 2,4-Dibromo-N′-(5-fluoro-2-hydroxybenzylidene)benzohydrazide] | 1 µg/mL (≈ 2.4 µM) | > 4 µg/mL | 
O=C(N/N=C/c1cc(Br)ccc1O)c1ccc(OC(F)(F)F)cc1 [Compound A7, 4-Trifluoromethoxy-N′-(5-bromo-2-hydroxybenzylidene)benzohydrazide] | 0.5 µg/mL (≈ 1.24 µM) | > 4 µg/mL | 
O=C(N/N=C/c1cc(Br)cc(Br)c1O)c1ccc(C(F)(F)F)cc1F [Compound A9, 2-Fluoro-4-trifluoromethyl-N′-(3,5-dibromo-2-hydroxybenzylidene)benzohydrazide] | 0.12 µg/mL (≈ 0.248 µM) | 0.5 µg/mL (≈ 1.03 µM) | 
O=C(N/N=C/c1cc(Br)cc(Br)c1O)c1cnc2ccccc2c1 [Compound A10, N′-(3,5-dibromo-2-hydroxybenzylidene) quinolinylhydrazide] | 0.25 µg/mL (≈ 0.557 µM) |  | Fungistatic
N#Cc1ccc(C(=O)N/N=C/c2cc(Br)cc(Br)c2O)cc1 [Compound A11, 4-Cyano-N′-(3,5-dibromo-2-hydroxybenzylidene)benzohydrazide] | 0.06 µg/mL (≈ 0.142 µM) | > 1 µg/mL | 
O=C(N/N=C/c1cc(Br)cc(Br)c1O)c1ccc(OC(F)(F)F)cc1F [Compound A13, 2-Fluoro-4-trifluoromethoxy-N′-(3,5-dibromo-2-hydroxybenzylidene)-benzohydrazide] | 0.06 µg/mL (≈ 0.12 µM) | 0.5 µg/mL (≈ 1 µM) | 
O=C(N/N=C/c1cc(C(F)(F)F)ccc1O)c1cccc(Br)c1 [Compound A14, 3-Bromo-N′-(2-hydroxy-5-trifluoromethylbenzylidene)benzohydrazide] | 0.5 µg/mL (≈ 1.29 µM) | > 2 µg/mL | 
Cc1ccc(O)c(/C=N/NC(=O)c2cc(Br)cc(Br)c2O)c1 [Compound A17, 3,5-Dibromo-2-hydroxy-N′-(5-methyl-2-hydroxyphenylmethylidene)benzohydrazide] | 0.25 µg/mL (≈ 0.584 µM) | 0.25 µg/mL (≈ 0.584 µM) | 
O=C(N/N=C/c1ccc(Br)cc1O)c1cc(Br)cc(Br)c1O [Compound A18, 3,5-Dibromo-2-hydroxy-N′-(4-bromo-2-hydroxybenzylidene)benzohydrazide] | 0.25 µg/mL (≈ 0.507 µM) | 0.25 µg/mL (≈ 0.507 µM) | 
O=C(N/N=C/c1ccc(Br)cc1O)c1ccc(OC(F)F)cc1 [Compound A21, 4-Difluoromethoxy-N′-(4-bromo-2-hydroxybenzylidene)benzohydrazide] | 0.12 µg/mL (≈ 0.312 µM) |  | 
O=C(N/N=C/c1cccc(Cl)c1O)c1cccc(C(F)(F)F)c1 [Compound A24, 3-Trifluoromethyl-N′-(3-chloro-2-hydroxybenzylidene)benzohydrazide] | 1 µg/mL (≈ 2.92 µM) | 4 µg/mL (≈ 11.7 µM) | 
O=C(N/N=C/c1cccc(Br)c1O)c1cccc(F)c1 [Compound A27, 3-Fluoro-N′-(3-bromo-2-hydroxybenzylidene)benzohydrazide] | 1 µg/mL (≈ 2.97 µM) | 2 µg/mL (≈ 5.93 µM) | 
O=C(N/N=C/c1cc(Cl)cc(Cl)c1O)c1ccc(Br)c(Br)c1 [Compound A30, 3,4-Dibromo-N′-(3,5-dichloro-2-hydroxybenzylidene)benzohydrazide] | < 0.03 µg/mL | > 0.025 µg/mL | 
O=C(N/N=C/c1cc(Cl)ccc1O)c1ccc(Br)c(Br)c1 [Compound A31, 3,4-Dibromo-N′-(5-chloro-2-hydroxybenzylidene)benzohydrazide] | 0.06 µg/mL (≈ 0.139 µM) | > 0.5 µg/mL | 
O=C(N/N=C/c1c(O)ccc2ccccc12)c1ccc(Br)c(Br)c1 [Compound A32, 3,4-Dibromo-N′-(2-hydroxy-1-naphthylidene)benzohydrazide] | 0.12 µg/mL (≈ 0.268 µM) | > 1 µg/mL | 
O=C(N/N=C/c1cc(Br)ccc1O)c1ccc(Br)c(Br)c1 [Compound A33, 3,4-Dibromo-N′-(5-bromo-2-hydroxybenzylidene)benzohydrazide] | 0.25 µg/mL (≈ 0.524 µM) | 2 µg/mL (≈ 4.19 µM) | 
Cc1ccc(O)c(/C=N/NC(=O)c2ccc(Br)c(Br)c2)c1 [Compound A34, 3,4-Dibromo-N′-(2-hydroxy-5-methylbenzylidene)benzohydrazide] | 0.12 µg/mL (≈ 0.291 µM) | > 1 µg/mL | 

More lines, main results first:

MIC80 (C. neoformans) | SMILES | MFC (C. neoformans cells) | K100* (μg/mL) (C. neoformans cells)
0.25 µg/mL (≈ 0.62 µM) | O=C(N/N=C/c1cc(OC(F)(F)F)ccc1O)c1ccc(Br)cc1 [Compound A1, 4-Bromo-N′-(2-hydroxy-5-trifluoromethoxybenzylidene)benzohydrazide] | > 1 µg/mL | 
1 µg/mL (≈ 2.97 µM) | O=C(N/N=C/c1cc(F)ccc1O)c1ccc(Br)cc1 [Compound A2, 4-Bromo-N′-(5-fluoro-2-hydroxybenzylidene)benzohydrazide] | > 4 µg/mL | 
0.12 µg/mL (≈ 0.312 µM) | O=C(N/N=C/c1cc(Br)ccc1O)c1cccc(OC(F)F)c1 [Compound A5, 3-Difluoromethoxy-N′-(5-bromo-2-hydroxybenzylidene)benzohydrazide] |  | Fungistatic
0.12 µg/mL (≈ 0.259 µM) | O=C(N/N=C/c1cc(Br)cc(Br)c1O)c1cccc(OC(F)F)c1 [Compound A6, 3-Difluoromethoxy-N′-(3,5-dibromo-2-hydroxybenzylidene)benzohydrazide] | 0.5 µg/mL (≈ 1.08 µM) | 
0.5 µg/mL (≈ 1.23 µM) | O=C(N/N=C/c1cc(Br)ccc1O)c1ccc(C(F)(F)F)cc1F [Compound A8, 2-Fluoro-4-trifluoromethyl-N′-(5-bromo-2-hydroxybenzylidene)benzohydrazide] | 1 µg/mL (≈ 2.47 µM) | 
0.5 µg/mL (≈ 1.19 µM) | O=C(N/N=C/c1cc(Br)ccc1O)c1ccc(OC(F)(F)F)cc1F [Compound A12, 2-Fluoro-4-trifluoromethoxy-N′-(5-bromo-2-hydroxybenzylidene)benzohydrazide] | 0.5 µg/mL (≈ 1.19 µM) | 
0.25 µg/mL (≈ 0.69 µM) | CN(C)c1ccc(C(=O)N/N=C/c2ccc(Br)cc2O)cc1 [Compound A16] | > 1 µg/mL | 
0.25 µg/mL (≈ 0.649 µM) | O=C(N/N=C/c1cc(Br)ccc1O)c1ccc(OC(F)F)cc1 [Compound A22, 4-Difluoromethoxy-N′-(5-bromo-2-hydroxybenzylidene)benzohydrazide] |  | 
0.12 µg/mL (≈ 0.259 µM) | O=C(N/N=C/c1cc(Br)cc(Br)c1O)c1ccc(OC(F)F)cc1 [Compound A23, 4-Difluoromethoxy-N′-(3,5-dibromo-2-hydroxybenzylidene)benzohydrazide] |  | 
1 µg/mL (≈ 2.58 µM) | O=C(N/N=C/c1cccc(Br)c1O)c1cccc(C(F)(F)F)c1 [Compound A25, 3-Trifluoromethyl-N′-(3-bromo-2-hydroxybenzylidene)benzohydrazide] | 2 µg/mL (≈ 5.17 µM) | 
0.5 µg/mL (≈ 1.29 µM) | O=C(N/N=C/c1ccc(Br)cc1O)c1cccc(C(F)(F)F)c1 [Compound A26, 3-Trifluoromethyl-N′-(4-bromo-2-hydroxybenzylidene)benzohydrazide] | 1 µg/mL (≈ 2.58 µM) | 
0.5 µg/mL (≈ 1.48 µM) | O=C(N/N=C/c1ccc(Br)cc1O)c1cccc(F)c1 [Compound A28, 3-Fluoro-N′-(4-bromo-2-hydroxybenzylidene)benzohydrazide] | > 2 µg/mL | 
0.06 µg/mL (≈ 0.108 µM) | O=C(N/N=C/c1cc(Br)cc(Br)c1O)c1ccc(Br)c(Br)c1 [Compound A29, 3,4-Dibromo-N′-(3,5-dibromo-2-hydroxybenzylidene)benzohydrazide] | > 0.5 µg/mL | 
0.06 µg/mL (≈ 0.126 µM) | O=C(N/N=C/c1ccc(Br)cc1O)c1ccc(Br)c(Br)c1 [Compound A35, 3,4-Dibromo-N′-(4-bromo-2-hydroxybenzylidene)benzohydrazide] | > 5 µg/mL | 
